Source: publication PMC7723023, “Antimicrobial, anti-cancer, anti-filarial and anti-inflammatory activities of Cowabenzophenone A extracted from the endophytic fungus Aspergillus terreus isolated from a mangrove plant Bruguiera gymnorrhyza” (Mycology, 2019)

Molecular target: α-glucosidase
Assay: α-glucosidase inhibition (assay details and enzyme source not described)
Assay type: biochemical

SMILES: C=C(C)C1CC23C(=O)C4(C/C=C(\C)CCC=C(C)C)CC(CC2C1(C)C)C(C)(C)C(C(=O)c1ccccc1)(C4=O)C3=O (stereo not shown) [Cowabenzophenone A]
- IC50: 7.8 ± 0.5 µM
